Assay [1] concerns the target RNA-directed RNA polymerase (Hepacivirus hominis, UniProt O39930). Briefly: inhibitory concentration against RNA dependent RNA polymerase Nonstructural protein 5B of hepatitis C virus.
Assay [2] concerns the target RNA-directed RNA polymerase (Hepacivirus hominis) (UniProt O39930). The assay is described as follows: Percentage inhibition of RNA dependent RNA polymerase Nonstructural protein 5B of hepatitis C virus at 50 uM.

Chain of RNA-directed RNA polymerase (O39930 whole entry): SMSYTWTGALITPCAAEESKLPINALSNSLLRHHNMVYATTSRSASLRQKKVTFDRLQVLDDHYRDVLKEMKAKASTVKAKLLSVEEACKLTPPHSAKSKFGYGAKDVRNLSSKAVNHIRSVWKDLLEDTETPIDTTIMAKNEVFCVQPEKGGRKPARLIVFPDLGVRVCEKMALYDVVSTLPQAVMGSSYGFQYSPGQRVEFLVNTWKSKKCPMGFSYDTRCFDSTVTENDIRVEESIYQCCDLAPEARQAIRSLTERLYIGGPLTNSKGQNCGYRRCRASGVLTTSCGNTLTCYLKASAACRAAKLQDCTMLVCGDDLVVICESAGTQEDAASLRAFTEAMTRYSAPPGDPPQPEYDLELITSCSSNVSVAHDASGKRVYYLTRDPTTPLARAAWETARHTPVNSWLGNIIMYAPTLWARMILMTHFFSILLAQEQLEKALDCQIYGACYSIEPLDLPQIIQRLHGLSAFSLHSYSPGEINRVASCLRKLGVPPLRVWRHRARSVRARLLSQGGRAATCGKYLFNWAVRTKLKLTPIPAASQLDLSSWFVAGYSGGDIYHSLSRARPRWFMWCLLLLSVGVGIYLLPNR
Chain of RNA-directed RNA polymerase (Hepacivirus hominis) (O39930 1-591): as the sequence (O39930 whole entry) above

In assay [1], `O=C(O)c1nc(-c2cccs2)nc(O)c1O` displayed an IC50 of 2.6 µM.
On the same count and under the same terms, under `COc1nc(-c2cccs2)nc(C(=O)O)c1O` stands 50 µM; under `O=C(NS(=O)(=O)C(F)(F)F)c1nc(-c2cccs2)[nH]c(=O)c1O`, 6.2 µM.
`CS(=O)(=O)Nc1nc(-c2cccs2)nc(C(=O)O)c1O` showed an inhibition in assay [2] of under 30%.
As to `O=C(O)C(=O)/C=C(\O)c1ccccc1`, the IC50 in assay [1] turned out to be 5.7 µM.
On to `Oc1nc(-c2cccs2)nc(-c2nn[nH]n2)c1O`, for which the inhibition in assay [2] was under 30%.
Regarding `O=C(O)c1nc(-c2ccccn2)nc(O)c1O`, the inhibition in assay [2] was under 30%.
Take `O=C(O)c1[nH]c(-c2cccs2)nc2ncnc1-2`: in assay [2], the inhibition is under 30%.
Still for that read-out and setting: under `COC(=O)c1nc(-c2cccs2)nc(O)c1O` stands under 30%.
In assay [2], `O=C(O)c1nc(-c2cccs2)ncc1O` registered an inhibition of under 30%.
As for `Cn1c(-c2cccs2)nc(C(=O)O)c(O)c1=O`, 4.2 µM corresponded to half-maximal inhibition in assay [1] (IC50).
In turn, `O=P(O)(O)c1nc(-c2cccs2)nc(O)c1O` came in with an inhibition in assay [2] of under 30%.
In assay [1], `CS(=O)(=O)c1nc(-c2cccs2)nc(C(=O)O)c1O` displayed an IC50 of 49 µM.
In assay [2], `O=C(NS(=O)(=O)Cc1ccccc1)c1nc(-c2cccs2)nc(O)c1O` yielded an inhibition of under 30%.
In assay [1], `O=C(O)c1nc(-c2ccccc2)nc(O)c1O` registered an IC50 of 30 µM.

(Values after ChEMBL document CHEMBL1137893, “Active site inhibitors of HCV NS5B polymerase. The development and pharmacophore of 2-thienyl-5,6-dihydroxypyrimidine-4-carboxylic acid” (Bioorg Med Chem Lett, 2004).)
